Laboratory results as given in ChEMBL document CHEMBL3616403, “Probing a 3,4'-bis-guanidinium diaryl derivative as an allosteric inhibitor of the Ras pathway” (Bioorg Med Chem Lett, 2015).
Activity calls are given as the source filed them. The rule behind the calls is not given here.

Assays:
[1] = Cytotoxicity against human T29 cells expressing wild type B-Raf assessed as cell viability after 72 hrs by MTT assay; format: functional, cell-based; conditions: T29, 72 h
[2] = Cytotoxicity against human F-6-8 cells expressing B-Raf V600E mutant assessed as cell viability after 72 hrs by MTT assay; format: functional, cell-based
T29 [3] = assay: Induction of apoptosis in human T29 cells assessed as PARP cleavage at 10 uM after 24 hrs by Western blot analysis; format: functional, cell-based
T29 [4] = assay: Cytotoxicity against human T29 cells assessed as cell detachment from culture dish at 10 uM after 24 hrs by inverted microscopic analysis; format: functional, cell-based
[5] = Cell cycle arrest in human T29 cells assessed as decrease in cell level at G0/G1 phase at 5 to 10 uM after 48 to 72 hrs by propidium iodide staining-based flow cytometric analysis; format: functional
[6] = Cell cycle arrest in human T29 cells assessed as increase in cell level at pre-G1 phase at 10 uM after 72 hrs by propidium iodide staining-based flow cytometric analysis; format: functional
[7] = Selectivity ratio of IC50 for human F-6-8 cells expressing B-Raf V600E mutant to IC50 for human T29 cells expressing wild type B-Raf; format: functional
[8] = target: Epidermal growth factor receptor (Homo sapiens) (UniProt P00533); assay: Inhibition of EGFR in human T29 cells assessed as suppression of Src phosphorylation at Tyr416 after 24 hrs by Western blot analysis; format: cell-based
[9] = target: Epidermal growth factor receptor (Homo sapiens) (UniProt P00533); assay: Inhibition of EGFR in human T29 cells assessed as suppression of AKT phosphorylation at mTORC2 site, Ser473 after 24 hrs by Western blot analysis; format: cell-based
[10] = target: Epidermal growth factor receptor (Homo sapiens) (UniProt P00533); assay: Inhibition of EGFR autophosphorylation at Tyr1068 in human T29 cells after 24 hrs by Western blot analysis; format: cell-based
[11] = target: Serine/threonine-protein kinase B-raf (Homo sapiens) (UniProt P15056); assay: Competitive inhibition of recombinant B-Raf (unknown origin) expressed in HEK293 cells up to 100 uM after 60 to 120 mins by FRET analysis in presence of ATP; format: cell-based
[12] = Cell cycle arrest in human T29 cells assessed as decrease in cell level at G2/M phase at 5 to 10 uM after 48 to 72 hrs by propidium iodide staining-based flow cytometric analysis; format: functional
[13] = Cell cycle arrest in human T29 cells assessed as decrease in cell level at S phase at 5 to 10 uM after 48 to 72 hrs by propidium iodide staining-based flow cytometric analysis; format: functional
[14] = Cell cycle arrest in human T29 cells assessed as increase in cell level at pre-G1 phase at 10 uM after 48 hrs by propidium iodide staining-based flow cytometric analysis; format: functional
T29 [15] = assay: Cytotoxicity against human T29 cells assessed as increase in membrane blebbing at 10 uM after 24 hrs by inverted microscopic analysis; format: functional, cell-based
[16] = Cell cycle arrest in human T29 cells assessed as increase in cell level at pre-G1 phase at 5 uM after 48 hrs by propidium iodide staining-based flow cytometric analysis; format: functional
T29 [17] = assay: Cytotoxicity against human T29 cells assessed as increase in nuclear fragmentation at 10 uM after 24 hrs by inverted microscopic analysis; format: functional, cell-based
[18] = target: Epidermal growth factor receptor (Homo sapiens) (UniProt P00533); assay: Inhibition of EGFR in human T29 cells assessed as suppression of C-Raf phosphorylation at p-21-activated protein kinase site, Ser338 after 24 hrs by Western blot analysis; format: cell-based
[19] = Cell cycle arrest in human T29 cells assessed as increase in cell level at pre-G1 phase at 5 uM after 72 hrs by propidium iodide staining-based flow cytometric analysis; format: functional
T29 [20] = assay: Cytotoxicity against human T29 cells assessed as increase in cell shrinkage at 10 uM after 24 hrs by inverted microscopic analysis; format: functional, cell-based
[21] = target: Epidermal growth factor receptor (Homo sapiens) (UniProt P00533); assay: Inhibition of EGFR in human T29 cells assessed as suppression of MEK phosphorylation at Ser217/Ser221 after 24 hrs by Western blot analysis; format: cell-based
[22] = target: Epidermal growth factor receptor (Homo sapiens) (UniProt P00533); assay: Inhibition EGFR in human T29 cells assessed as suppression of STAT3 phosphorylation at Tyr705 after 24 hrs by Western blot analysis; format: cell-based
[23] = target: Epidermal growth factor receptor (Homo sapiens) (UniProt P00533); assay: Inhibition of EGFR in human T29 cells assessed as suppression of ERK phosphorylation at Tyr204 after 24 hrs by Western blot analysis; format: cell-based
[24] = target: Serine/threonine-protein kinase B-raf (Homo sapiens) (UniProt P15056); assay: Inhibition of recombinant B-Raf (unknown origin) expressed in HEK293 cells using MEK1 peptide as substrate at 20 uM after 15 mins by radiometric assay in presence of [gamma-32P]ATP

Chain of Epidermal growth factor receptor (Homo sapiens) (P00533 whole entry): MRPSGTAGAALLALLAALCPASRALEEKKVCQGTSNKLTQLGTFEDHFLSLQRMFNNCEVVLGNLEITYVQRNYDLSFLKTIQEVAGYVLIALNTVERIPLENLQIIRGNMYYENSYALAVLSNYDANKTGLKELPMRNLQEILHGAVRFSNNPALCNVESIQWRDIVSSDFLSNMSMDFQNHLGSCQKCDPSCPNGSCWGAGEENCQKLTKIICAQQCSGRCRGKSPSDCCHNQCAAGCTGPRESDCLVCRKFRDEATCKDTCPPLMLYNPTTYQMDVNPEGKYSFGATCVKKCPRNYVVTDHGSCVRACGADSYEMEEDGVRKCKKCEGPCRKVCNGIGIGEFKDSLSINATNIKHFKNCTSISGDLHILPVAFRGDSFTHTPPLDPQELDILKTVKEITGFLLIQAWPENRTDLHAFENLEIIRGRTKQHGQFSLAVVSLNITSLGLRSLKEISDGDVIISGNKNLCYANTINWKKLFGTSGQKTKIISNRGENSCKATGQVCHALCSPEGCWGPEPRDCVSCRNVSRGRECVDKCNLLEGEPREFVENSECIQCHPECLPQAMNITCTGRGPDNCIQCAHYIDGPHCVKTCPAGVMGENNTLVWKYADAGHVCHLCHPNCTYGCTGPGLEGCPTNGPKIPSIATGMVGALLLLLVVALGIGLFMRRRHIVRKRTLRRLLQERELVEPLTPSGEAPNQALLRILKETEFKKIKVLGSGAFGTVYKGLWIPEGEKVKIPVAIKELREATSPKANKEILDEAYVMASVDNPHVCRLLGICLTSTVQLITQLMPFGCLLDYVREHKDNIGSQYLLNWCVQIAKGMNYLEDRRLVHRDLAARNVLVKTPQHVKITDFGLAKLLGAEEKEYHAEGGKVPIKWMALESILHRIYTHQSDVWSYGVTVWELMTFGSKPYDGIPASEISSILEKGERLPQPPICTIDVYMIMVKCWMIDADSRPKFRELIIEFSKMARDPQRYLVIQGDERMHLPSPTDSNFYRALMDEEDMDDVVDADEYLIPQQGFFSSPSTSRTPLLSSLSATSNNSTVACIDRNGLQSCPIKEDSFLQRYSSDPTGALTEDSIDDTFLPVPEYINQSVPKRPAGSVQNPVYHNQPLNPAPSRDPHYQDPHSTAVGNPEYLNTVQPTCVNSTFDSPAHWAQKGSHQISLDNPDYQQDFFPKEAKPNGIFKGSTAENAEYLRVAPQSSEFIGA
Chain of Serine/threonine-protein kinase B-raf (Homo sapiens) (P15056 whole entry): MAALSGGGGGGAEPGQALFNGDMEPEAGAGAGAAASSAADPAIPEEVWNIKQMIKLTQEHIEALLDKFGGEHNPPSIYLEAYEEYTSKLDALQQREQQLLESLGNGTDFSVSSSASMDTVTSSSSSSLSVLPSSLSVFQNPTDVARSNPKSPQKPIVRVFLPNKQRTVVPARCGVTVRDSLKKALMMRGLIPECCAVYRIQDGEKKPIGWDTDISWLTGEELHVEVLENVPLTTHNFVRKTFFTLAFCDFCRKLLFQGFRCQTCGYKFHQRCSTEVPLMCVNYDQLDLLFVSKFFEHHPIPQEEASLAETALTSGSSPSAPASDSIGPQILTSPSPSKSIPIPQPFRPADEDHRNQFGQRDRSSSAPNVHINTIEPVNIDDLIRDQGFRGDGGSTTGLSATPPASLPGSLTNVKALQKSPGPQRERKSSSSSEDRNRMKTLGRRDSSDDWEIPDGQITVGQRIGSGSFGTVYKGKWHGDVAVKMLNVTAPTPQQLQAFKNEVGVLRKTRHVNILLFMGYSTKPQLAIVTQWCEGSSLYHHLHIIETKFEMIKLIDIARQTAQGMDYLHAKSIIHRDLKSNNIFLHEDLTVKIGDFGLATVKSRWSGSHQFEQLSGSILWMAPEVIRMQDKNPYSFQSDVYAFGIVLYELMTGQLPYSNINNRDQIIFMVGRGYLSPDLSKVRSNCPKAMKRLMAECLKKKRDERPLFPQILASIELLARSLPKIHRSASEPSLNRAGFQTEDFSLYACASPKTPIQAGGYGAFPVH

N=C(N)Nc1ccc(Oc2cccc(NC(=N)N)c2)cc1
IC50 [1]: 6.5 µM
IC50 [2]: 9.8 µM

CNC(=O)c1cc(Oc2ccc(NC(=O)Nc3ccc(Cl)c(C(F)(F)F)c3)cc2)ccn1 [SORAFENIB]
IC50 [1]: 0.9 µM
IC50 [2]: 1.3 µM

CC(=O)Nc1cccc(Nc2ccc(NC(=N)Nc3ccc(Cl)c(C(F)(F)F)c3)cc2)c1
IC50 [1]: 4.1 µM
IC50 [2]: 6.6 µM

N=C(N)Nc1cccc(Cc2ccc(NC(=N)Nc3ccc(Cl)c(C(F)(F)F)c3)cc2)c1
IC50 [1]: 4.5 µM
IC50 [2]: 7.6 µM

N=C(N)Nc1ccc(Oc2cccc(NC(=N)Nc3ccc(Cl)c(C(F)(F)F)c3)c2)cc1
Activity (T29 [3]): Active
Activity (T29 [4]): Active
Activity [5]: Active
Activity [6]: 38.7%
Ratio IC50 [7]: 2
inhibition [8]: Dose-dependent effect
inhibition [9]: Dose-dependent effect
IC50 [1]: 0.9 µM
IC50 [2]: 2.6 µM
inhibition [10]: Dose-dependent effect
inhibition [11]: inactive
Activity [12]: Active
Activity [13]: Active
Activity [14]: 20.7%
Activity (T29 [15]): Active
Activity [16]: 8.5%
Activity (T29 [17]): Active
inhibition [18]: Dose-dependent effect
Activity [19]: 22.5%
Activity (T29 [20]): Active
inhibition [21]: Dose-dependent effect
inhibition [22]: Dose-dependent effect
inhibition [23]: Dose-dependent effect
inhibition [24]: Active
